Laboratory results taken from ChEMBL document CHEMBL5465560, “Selectivity Literature for EUbOPEN Chemogenomic Library” (2024).
Each block holds one compound with its values, some of them ahead of it.

Assays:
[1] = target: T1, Serine/threonine-protein kinase D1 (Homo sapiens) (UniProt Q15139); assay: Selectivity interaction (Kinase panel (Z-LYTE Assay)) EUB0001632a PRKD1; conditions: at 10 µM
T1 sequence (whole entry): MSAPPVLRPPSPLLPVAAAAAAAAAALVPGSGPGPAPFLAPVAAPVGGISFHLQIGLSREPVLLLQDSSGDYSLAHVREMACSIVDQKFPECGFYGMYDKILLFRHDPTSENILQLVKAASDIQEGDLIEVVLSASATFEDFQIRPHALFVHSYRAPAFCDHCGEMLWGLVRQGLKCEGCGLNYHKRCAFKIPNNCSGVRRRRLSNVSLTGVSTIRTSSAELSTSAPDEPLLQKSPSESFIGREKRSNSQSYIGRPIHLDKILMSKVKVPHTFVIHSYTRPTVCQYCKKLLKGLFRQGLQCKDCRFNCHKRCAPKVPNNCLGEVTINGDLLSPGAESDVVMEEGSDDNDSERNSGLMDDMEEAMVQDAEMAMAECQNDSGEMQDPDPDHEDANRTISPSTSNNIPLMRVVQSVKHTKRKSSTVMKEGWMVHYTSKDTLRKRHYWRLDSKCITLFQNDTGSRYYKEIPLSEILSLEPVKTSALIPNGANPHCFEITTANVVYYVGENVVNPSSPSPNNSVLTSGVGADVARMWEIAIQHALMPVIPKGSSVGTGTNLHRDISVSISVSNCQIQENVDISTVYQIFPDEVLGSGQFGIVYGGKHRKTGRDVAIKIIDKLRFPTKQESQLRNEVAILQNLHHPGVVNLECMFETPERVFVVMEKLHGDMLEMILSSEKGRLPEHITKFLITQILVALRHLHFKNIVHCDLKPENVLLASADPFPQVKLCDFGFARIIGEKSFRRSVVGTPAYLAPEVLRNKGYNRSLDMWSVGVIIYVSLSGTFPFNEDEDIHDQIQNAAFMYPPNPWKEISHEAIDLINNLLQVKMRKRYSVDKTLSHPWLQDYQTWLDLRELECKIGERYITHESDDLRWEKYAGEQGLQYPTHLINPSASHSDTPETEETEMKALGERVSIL

[2] = target: Death-associated protein kinase 2 (Homo sapiens) (UniProt Q9UIK4); conditions: at 10 µM
Chain of Death-associated protein kinase 2 (Homo sapiens) (Q9UIK4 whole entry, looked up): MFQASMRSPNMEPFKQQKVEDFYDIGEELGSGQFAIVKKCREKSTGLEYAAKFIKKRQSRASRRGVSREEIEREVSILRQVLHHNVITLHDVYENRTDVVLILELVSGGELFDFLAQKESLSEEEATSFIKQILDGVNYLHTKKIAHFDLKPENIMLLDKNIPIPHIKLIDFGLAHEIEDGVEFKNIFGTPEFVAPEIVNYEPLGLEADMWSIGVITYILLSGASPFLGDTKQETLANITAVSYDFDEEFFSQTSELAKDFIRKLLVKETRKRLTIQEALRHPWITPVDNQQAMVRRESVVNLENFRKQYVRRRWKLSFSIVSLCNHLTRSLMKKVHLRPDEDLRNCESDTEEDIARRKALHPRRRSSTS

[3] = target: Mitogen-activated protein kinase 9 (Homo sapiens, UniProt P45984); assay: Selectivity interaction (ProQinase) EUB0000171b MAPK9
Chain of Mitogen-activated protein kinase 9 (P45984 whole entry, looked up): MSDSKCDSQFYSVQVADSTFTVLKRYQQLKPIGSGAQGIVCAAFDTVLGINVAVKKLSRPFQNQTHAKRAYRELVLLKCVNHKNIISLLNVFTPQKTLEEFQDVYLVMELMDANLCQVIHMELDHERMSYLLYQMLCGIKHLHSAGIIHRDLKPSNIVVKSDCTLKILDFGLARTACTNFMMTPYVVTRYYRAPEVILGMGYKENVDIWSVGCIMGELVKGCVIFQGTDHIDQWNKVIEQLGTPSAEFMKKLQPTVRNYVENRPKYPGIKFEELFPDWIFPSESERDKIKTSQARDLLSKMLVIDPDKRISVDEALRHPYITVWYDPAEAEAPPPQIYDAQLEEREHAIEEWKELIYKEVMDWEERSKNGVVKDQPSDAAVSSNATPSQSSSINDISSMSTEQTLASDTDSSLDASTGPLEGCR

[4] = target: T2, 5-hydroxytryptamine receptor 1A (Homo sapiens) (UniProt P08908); assay: Selectivity interaction (Panel of non-epigenetic targets (kinases, GPCRs, ion channels, and transporters, Eurofins) ) EUB0000271b HTR1A; conditions: at 1 µM
T2 sequence (whole entry): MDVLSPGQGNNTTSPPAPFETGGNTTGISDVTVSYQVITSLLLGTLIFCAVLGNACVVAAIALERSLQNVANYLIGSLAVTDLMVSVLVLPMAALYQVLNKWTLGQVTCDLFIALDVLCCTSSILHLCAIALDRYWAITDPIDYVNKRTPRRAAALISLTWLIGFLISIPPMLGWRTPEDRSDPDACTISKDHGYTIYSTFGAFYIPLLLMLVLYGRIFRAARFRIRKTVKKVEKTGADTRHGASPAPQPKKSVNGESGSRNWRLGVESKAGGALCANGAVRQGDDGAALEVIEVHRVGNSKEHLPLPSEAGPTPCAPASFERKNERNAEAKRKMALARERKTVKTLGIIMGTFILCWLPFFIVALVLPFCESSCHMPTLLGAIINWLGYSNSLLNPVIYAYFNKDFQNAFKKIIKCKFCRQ

[5] = target: T3, Ephrin type-B receptor 4 (Homo sapiens) (UniProt P54760); assay: Selectivity interaction (Ambit KINOMEscan and KiNATiv profiling in Jurkat cells) EUB0000090b EPHB4; type: cell-based; conditions: at 1 µM
T3 sequence (whole entry): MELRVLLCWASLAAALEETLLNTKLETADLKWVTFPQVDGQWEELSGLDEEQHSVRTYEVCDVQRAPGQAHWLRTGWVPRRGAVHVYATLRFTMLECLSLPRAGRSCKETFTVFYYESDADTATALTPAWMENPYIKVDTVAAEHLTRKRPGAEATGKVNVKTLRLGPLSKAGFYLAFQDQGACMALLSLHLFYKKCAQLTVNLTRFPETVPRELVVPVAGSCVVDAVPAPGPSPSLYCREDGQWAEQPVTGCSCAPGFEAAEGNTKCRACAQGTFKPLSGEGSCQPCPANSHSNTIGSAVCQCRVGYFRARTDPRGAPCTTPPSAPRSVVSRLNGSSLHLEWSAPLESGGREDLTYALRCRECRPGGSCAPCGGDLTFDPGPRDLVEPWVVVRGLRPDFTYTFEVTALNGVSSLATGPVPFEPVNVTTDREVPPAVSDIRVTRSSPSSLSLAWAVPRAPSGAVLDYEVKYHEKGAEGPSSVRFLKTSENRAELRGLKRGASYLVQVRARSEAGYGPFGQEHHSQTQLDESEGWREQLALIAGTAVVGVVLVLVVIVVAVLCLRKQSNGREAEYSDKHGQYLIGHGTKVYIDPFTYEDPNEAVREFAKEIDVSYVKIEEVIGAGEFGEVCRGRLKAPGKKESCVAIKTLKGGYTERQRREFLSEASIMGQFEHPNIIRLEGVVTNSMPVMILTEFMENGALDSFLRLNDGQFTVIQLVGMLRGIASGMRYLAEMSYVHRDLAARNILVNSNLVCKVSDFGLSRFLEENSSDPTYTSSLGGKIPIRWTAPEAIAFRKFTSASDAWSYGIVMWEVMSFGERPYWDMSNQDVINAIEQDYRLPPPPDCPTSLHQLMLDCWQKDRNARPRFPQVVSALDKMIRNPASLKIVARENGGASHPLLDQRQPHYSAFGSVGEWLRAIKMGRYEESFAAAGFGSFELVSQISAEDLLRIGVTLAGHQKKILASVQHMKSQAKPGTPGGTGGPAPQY

% of control [1]: 3.91%
Structure (SMILES): Cn1cc(-n2cnc3c(NCc4nc5cc(Cl)c(Cl)cc5[nH]4)nc(N4CCOCC4)nc32)cn1

Structure (SMILES): CCN(CC)CCCCNc1ncc2cc(-c3cc(OC)cc(OC)c3)c(NC(=O)NC(C)(C)C)nc2n1
% of control [2]: 100%

% of control ([3]; at 1 µM): 8%
% of control ([3]; at 5 µM): 1%
Structure (SMILES): C=CC(=O)Nc1cccc(C(=O)Nc2ccc(Nc3cc(-c4[nH]c(SC)nc4C)ccn3)cc2)c1

Structure (SMILES): Cc1cc(C)cc([C@@H]2c3cc(C)ccc3NC(=O)CN2C(=O)c2ccc(Br)s2)c1
% of inhibition [4]: 5%

Structure (SMILES): CN(C)C/C=C/C(=O)Nc1ccc(C(=O)N2CCCC(Nc3ncc(Cl)c(-c4c[nH]c5ccccc45)n3)C2)cc1 (stereo unspecified)
% of control [5]: 94%
